The values that follow come from US4115385A, “Antibacterial 3-(5-tetrazolyl) penam compounds” (Pfizer Inc., priority 1977, dated 1978).

≈ marks a conversion by molar mass, not a printed value. Where two headings read alike, the source gives them in different places. A value given as a limit tells only on which side of the number the result lay.

Test [1] deals with Staphylococcus aureus. Briefly: In vitro minimum inhibitory concentration (MIC) vs. Staph. aureus. It is filed as cell-based. As to conditions: for MIC: Staphylococcus aureus. As for the experimental part:
The antibacterial penam compounds of the instant invention show activity against a wide variety of gram-positive and gram-negative bacteria. […] The broth is inoculated with the bacterial culture, and with the test antibiotic, and then it is incubated overnight. On the next day, the test is read visually. The minimum inhibitory concentration (MIC) is the lowest concentration of antibiotic which prevents turbidity, i.e., which prevents growth of the microorganism. In vitro activities of several of the penam compounds of the invention are presented later in this specification.
In Table II, the minimum inhibitory concentrations (MIC's) of compounds of formula I, wherein R^2 is hydrogen, against a strain of Streptococcus pyogenes, are reported; and in Table III, minimum inhibitory concentrations of compounds of formula I, wherein R^2 is hydrogen, against a strain of Staphylococcus aureus, are presented. Because of the tautomeric nature of such tetrazole derivatives, referred to hereinbefore,each of the preparations tested also contains some of the corresponding compound of formula II, wherein R^3 is hydrogen.

The test system of test [2] is Streptococcus pyogenes. Briefly: In vitro minimum inhibitory concentration (MIC) vs. Strep. pyogenes. It is filed as cell-based. As to conditions: Streptococcus pyogenes; Table II; two-fold serial dilution, Brain-Heart Infusion broth, overnight; read-out: MIC vs. Strep. pyogenes. In outline:
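Broth inoculated with bacteria and test antibiotic, incubated overnight and read visually; MIC is the lowest concentration preventing turbidity. Test preparations also contain some of the corresponding tetrazole tautomer.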

The subject of test [3] is Staphylococcus aureus. The test is described as follows: In vivo protection of mice against systemic infection by Staphylococcus aureus. As to conditions: multiple dosing. The method, then:
(§1) The antibacterial penam compounds of the instant invention are also active in vivo. In determining such activity, the test antibiotic is administered to infected mice, using a multiple dosing regimen. The severity of the infection varies from about one to about ten times that needed to kill 100% of the mice under the conditions of the test. At the end of the test, the activity of a compound is assessed by counting the number of survivors among the treated animals. Both the subcutaneous (SC) and the oral (PO) dosage routes are used. Results are given in Table I for two of the compounds of the invention. The ability of the compounds to protect mice against systemic infections caused by a lethal intraperitoneal inoculum of Staphylococcus aureus or of Escherichia coli is presented.

Test [4] relates to Escherichia coli. The test is described as follows: In vivo protection of mice against systemic infection by Escherichia coli. Particulars: multiple dosing. The method, then: as §1
Setting [5] is: Table III, two-fold serial dilution, Brain-Heart Infusion broth, overnight, read-out: MIC vs. Staph. aureus.

In general, MIC refers to the least concentration at which growth counts as inhibited. As for `COc1ccc([C@@H](N)C(=O)N[C@@H]2C(=O)N3[C@@H]2SC(C)(C)[C@@H]3c2nnn[nH]2)cc1` [D-2-amino-2-(p-methoxyphenyl)acetyl], the minimum inhibitory concentration (MIC) in test [1] (setting [5]) is under 0.1 µg/mL. The same measure, in the same setting: the same measure for `CC1(C)S[C@@H]2[C@H](NC(=O)C(NC(=O)CSc3ccncc3)c3ccccc3)C(=O)N2[C@H]1c1nn[nH]n1` (stereo partly shown) [6-(2-[2-(4-Pyridylthio)acetamido]-2-phenylacetamido)-2,2-dimethyl-3-(5-tetrazolyl)penam]: 100 µg/mL (≈ 191 µM). As for `CC1(C)S[C@@H]2[C@H](NC(=O)[C@H](NC(=O)CC(=N)N)c3ccccc3)C(=O)N2[C@H]1c1nn[nH]n1` [D-2-(2-[guanyl]acetamido)-2-phenylacetyl, 6-(D-2-[2-Guanylacetamido]-2-phenylacetamido)-2,2-dimethyl-3-(5-tetrazolyl)penam], the MIC in test [1] (setting [5]) turned out to be 12.5 µg/mL (≈ 27.3 µM). Same read-out and setting: the same measure for `CC(=O)N[C@@H](C(=O)N[C@@H]1C(=O)N2[C@@H]1SC(C)(C)[C@@H]2c1nnn[nH]1)c1ccccc1` [D-2-(acetamido)-2-phenylacetyl]: 0.78 µg/mL (≈ 1.88 µM).

With `CC1(C)S[C@@H]2[C@H](NC(=O)CN)C(=O)N2[C@H]1c1nnn[nH]1` [2-aminoacetyl], the MIC in test [1] (setting [5]) turned out to be 200 µg/mL (≈ 673 µM).

Consider `CC(C)C(NC(=N)c1ccncc1)C(=O)N[C@@H]1C(=O)N2[C@@H]1SC(C)(C)[C@@H]2c1nnn[nH]1` (stereo partly shown), for which, in test [1] (setting [5]), the MIC came out at 50 µg/mL (≈ 113 µM). On to `CC(=N)NCC(=O)N[C@@H](C(=O)N[C@@H]1C(=O)N2[C@@H]1SC(C)(C)[C@@H]2c1nnn[nH]1)c1ccccc1`, for which the MIC in test [1] (setting [5]) is 1.56 µg/mL (≈ 3.31 µM). In the case of `CC1(C)S[C@@H]2[C@H](NC(=O)[C@H](N)c3ccc(O)cc3)C(=O)N2[C@H]1c1nnn[nH]1` [D-2-amino-2-(p-hydroxyphenyl)acetyl, 6-(D-2-Amino-2-[4-hydroxyphenyl]acetamido)-2,2-dimethyl-3-(5-tetrazolyl)penam], in test [2], the minimum inhibitory concentration (MIC) was under 0.1 µg/mL. The “Percentage Protection S. aureus” value in test [3] (6 mg./kg. SC) amounted to 50%; in test [3] (12 mg./kg. SC), 50%; in test [3] (25 mg./kg. SC), 70%; in test [3] (50 mg./kg. SC) it was 80%. In addition, the figures for the “Percentage Protection E. coli” value in test [4] (25 mg./kg. SC), in test [4] (50 mg./kg. SC) and in test [4] (200 mg./kg. PO) were 80%, 100% and 100%, respectively. Take `CC1(C)S[C@@H]2[C@H](NC(=O)[C@H](O)c3ccccc3)C(=O)N2[C@H]1c1nnn[nH]1` [D-2-hydroxy-2-phenylacetyl, 6-(D-2-Hydroxy-2-phenylacetamido)-2,2-dimethyl-3-(5-tetrazolyl)penam]: in test [1] (setting [5]), the MIC was under 0.1 µg/mL. As for `CC1(C)S[C@@H]2[C@H](NC(=O)[C@H](NC(=S)NC(=O)c3ccco3)c3ccccc3)C(=O)N2[C@H]1c1nn[nH]n1`, the minimum inhibitory concentration (MIC) in test [1] (setting [5]) was 0.78 µg/mL (≈ 1.48 µM). For `CN(C)C=NCC(=O)N[C@@H](C(=O)NC1C(=O)N2C1SC(C)(C)C2c1nnn[nH]1)c1ccccc1` (stereo partly drawn) [6-(D-2-[2-(dimethylaminoethyleneamino)acetamido]-2-phenylacetamido-2,2-dimethyl-3-(5-tetrazolyl)penam], the “MIC vs. Staph. aureus” value in test [1] (Table III, two-fold serial dilution, Brain-Heart Infusion broth, overnight) was found to be 6.25 µg/mL (≈ 12.9 µM). As for `CC1(C)S[C@@H]2[C@H](NC(=O)[C@H](NC(=O)CNC(=O)c3cc(Br)cc(Br)c3)c3ccccc3)C(=O)N2[C@H]1c1nnn[nH]1`, the MIC in test [1] (setting [5]) amounted to 1.56 µg/mL (≈ 2.25 µM). For `CC1(C)S[C@@H]2[C@H](NC(=O)[C@H](N)c3ccsc3)C(=O)N2[C@H]1c1nnn[nH]1` [D-2-amino-2-(3-thienyl)acetyl, 6-(D-2-Amino-2-[3-thienyl]acetamido)-2,2-dimethyl-3-(5-tetrazolyl)penam], the MIC in test [1] (setting [5]) is under 0.1 µg/mL. The “Percentage Protection S. aureus” value in test [3] (6 mg./kg. SC) was 50%; in test [3] (12 mg./kg. SC), 50%; in test [3] (25 mg./kg. SC) it was 60%; in test [3] (50 mg./kg. SC), 40%. In addition, the “Percentage Protection E. coli” value in test [4] (25 mg./kg. SC) is on record as 20%; in test [4] (50 mg./kg. SC), 20%; in test [4] (200 mg./kg. PO) it was 0%. On to `CC1(C)S[C@@H]2[C@H](NC(=O)[C@@H](O)c3ccccc3)C(=O)N2[C@H]1c1nnn[nH]1` [L-2-hydroxy-2-phenylacetyl, 6-(L-2-Hydroxy-2-phenylacetamido)-2,2-dimethyl-3-(5-tetrazolyl)penam], for which, in test [1] (setting [5]), the MIC was under 0.1 µg/mL.

Consider `CC1(C)S[C@@H]2[C@H](NC(=O)[C@H](NS(=O)(=O)c3ccc(Cl)cc3)c3ccccc3)C(=O)N2[C@H]1c1nn[nH]n1`, for which, in test [1] (setting [5]), the MIC was found to be 1.56 µg/mL (≈ 2.85 µM). With `CC1(C)S[C@@H]2[C@H](NC(=O)[C@H](NS(C)(=O)=O)c3ccccc3)C(=O)N2[C@H]1c1nn[nH]n1` [D-2-(methanesulfonamido)-2-phenylacetyl, 6-(D-2-Methanesulfonamido-2-phenylacetamido)-2,2-dimethyl-3-(5-tetrazolyl)penam], the minimal inhibitory concentration (MIC) in test [1] (setting [5]) turned out to be 1.56 µg/mL (≈ 3.45 µM). With `CC1(C)S[C@@H]2[C@H](N3C(=O)[C@@H](c4ccc(O)cc4)NC3(C)C)C(=O)N2[C@H]1c1nnn[nH]1` [6-(2,2-Dimethyl-5-oxo-4-[p-hydroxyphenyl]-1-imidazolidinyl)-2,2-dimethyl-3-(5-tetrazolyl)penam], the MIC in test [1] (Table IV, values marked *, read-out: MIC against Staph. aureus) came to 0.78 µg/mL (≈ 1.82 µM).
